Results from PMC8053501 (Diabetes, Metabolic Syndrome and Obesity: Targets and …, 2021).
Entries after “also recorded” stand apart in the source; their conditions may differ. Like-named read-outs stand apart in the source and are kept apart here.

Key:
[1] = in vivo; settings: male, ICR, mouse, po
[2] = normal mice, oral gavage, 3mg/kg
[3] = test system: diabetes mellitus patients; assay: Acute kidney injury; type: in vivo, human; settings: for Association with AKI, Unadjusted (95% CI) / Association with AKI, Adjusted (95% CI): metformin as reference; for Association with AKI, Adjusted (95% CI): multivariate; for Association with AKI compared to control drug metformin, in words: multivariate analysis; for Events During the 90 days (AKI): primary endpoint, first 90 days, patients above 55 years; for Total endpoint (AKI events): primary plus secondary endpoint; for Events at secondary end (AKI): secondary endpoint, after 90 days of hospital admission; for Total Percent (incidence rate of AKI at the end of the study): share of the 4966 total outcomes
[4] = Endpoint Diagnosis with 1047 Outcome
[5] = Secondary Diagnosis with 3919 Outcomes

Cn1c(=O)cc(N2CCC[C@@H](N)C2)n(Cc2ccccc2C#N)c1=O [Alogliptin, alogliptin]
Tmax [1]: 1 h | Tmax ([1]; 3 mg/kg): 1 h | Cmax ([1]; 3 mg/kg, oral gavage, Kidney): 8560 ng/mL | Cmax ([1]; 3 mg/kg, oral gavage, Liver): 6730 ng/mL | Cmax ([1]; 3 mg/kg, oral gavage, Plasma): 943 ng/mL | half-life ([1]; 3 mg/kg, t1/2): 2.4 h | Drug concentration, time course ([2]; Kidney, 0h): 0 | Drug concentration, time course ([2]; Kidney, 3h): 6700 | Drug concentration, time course ([2]; Kidney, 6h): 4300 | Drug concentration, time course ([2]; Kidney, 9h): 2350 | Drug concentration, time course ([2]; Kidney, 12h): 100 | Drug concentration, time course ([2]; Kidney, 15h): 50 | Drug concentration, time course ([2]; Kidney, 18h): 0 | Drug concentration, time course ([2]; Kidney, 21h): 0 | Drug concentration, time course ([2]; Kidney, 24h): 0 | Drug concentration, time course ([2]; Liver, 0h): 0 | Drug concentration, time course ([2]; Liver, 3h): 6340 | Drug concentration, time course ([2]; Liver, 6h): 3500 | Drug concentration, time course ([2]; Liver, 9h): 1980 | Drug concentration, time course ([2]; Liver, 12h): 300 | Drug concentration, time course ([2]; Liver, 15h): 100 | Drug concentration, time course ([2]; Liver, 18h): 0 | Drug concentration, time course ([2]; Liver, 21h): 0 | Drug concentration, time course ([2]; Liver, 24h): 0 | Drug concentration, time course ([2]; Plasma, 0h): 0 | Drug concentration, time course ([2]; Plasma, 3h): 400 | Drug concentration, time course ([2]; Plasma, 6h): 250 | Drug concentration, time course ([2]; Plasma, 9h): 50 | Drug concentration, time course ([2]; Plasma, 12h): 0 | Drug concentration, time course ([2]; Plasma, 15h): 0 | Drug concentration, time course ([2]; Plasma, 18h): 0 | Drug concentration, time course ([2]; Plasma, 21h): 0 | Drug concentration, time course ([2]; Plasma, 24h): 0 | Association with AKI, Unadjusted (95% CI) [3, 4]: 1.83 (1.75–2.16) | Association with AKI, Adjusted (95% CI) [3, 4]: 1.43 (1.31–2.04) | Association with AKI, Unadjusted (95% CI) [3, 5]: 2.27 (1.08–3.12) | Association with AKI, Adjusted (95% CI) [3, 5]: 2.85 (2.26–3.07) | Association with AKI compared to control drug metformin, in words [3]: increased rate of AKI | Events During the 90 days (AKI) [3]: 91 | Total endpoint (AKI events) [3]: 364 | Events at secondary end (AKI) [3]: 273 | Total Percent (incidence rate of AKI at the end of the study) [3]: 7.33%

CC1(C)S[C@@H]2[C@H](NC(=O)[C@H](N)c3ccc(O)cc3)C(=O)N2[C@H]1C(=O)O [Amoxicillin, amoxicillin]
Tmax [1]: 1 h | Tmax ([1]; 3 mg/kg): 1 h | Cmax ([1]; 3 mg/kg, oral gavage, Kidney): 4510 ng/mL | Cmax ([1]; 3 mg/kg, oral gavage, Liver): 3980 ng/mL | Cmax ([1]; 3 mg/kg, oral gavage, Plasma): 945 ng/mL | half-life ([1]; 3 mg/kg, t1/2): 1.6 h | Drug concentration, time course ([2]; Kidney, 0h): 9860 | Drug concentration, time course ([2]; Kidney, 3h): 7320 | Drug concentration, time course ([2]; Kidney, 6h): 5670 | Drug concentration, time course ([2]; Kidney, 9h): 2340 | Drug concentration, time course ([2]; Kidney, 12h): 730 | Drug concentration, time course ([2]; Kidney, 15h): 60 | Drug concentration, time course ([2]; Kidney, 18h): 0 | Drug concentration, time course ([2]; Kidney, 21h): 0 | Drug concentration, time course ([2]; Kidney, 24h): 0 | Drug concentration, time course ([2]; Liver, 0h): 12,110 | Drug concentration, time course ([2]; Liver, 3h): 8700 | Drug concentration, time course ([2]; Liver, 6h): 5470 | Drug concentration, time course ([2]; Liver, 9h): 1350 | Drug concentration, time course ([2]; Liver, 12h): 200 | Drug concentration, time course ([2]; Liver, 15h): 30 | Drug concentration, time course ([2]; Liver, 18h): 0 | Drug concentration, time course ([2]; Liver, 21h): 0 | Drug concentration, time course ([2]; Liver, 24h): 0 | Drug concentration, time course ([2]; Plasma, 0h): 370 | Drug concentration, time course ([2]; Plasma, 3h): 80 | Drug concentration, time course ([2]; Plasma, 6h): 45 | Drug concentration, time course ([2]; Plasma, 9h): 0 | Drug concentration, time course ([2]; Plasma, 12h): 0 | Drug concentration, time course ([2]; Plasma, 15h): 0 | Drug concentration, time course ([2]; Plasma, 18h): 0 | Drug concentration, time course ([2]; Plasma, 21h): 0 | Drug concentration, time course ([2]; Plasma, 24h): 0 | Association with AKI, Unadjusted (95% CI) [3, 4]: 1.73 (1.16–1.85) | Association with AKI, Adjusted (95% CI) [3, 4]: 1.36 (1.06–1.54) | Association with AKI, Unadjusted (95% CI) [3, 5]: 1.17 (0.88–1.43) | Association with AKI, Adjusted (95% CI) [3, 5]: 1.34 (1.07–1.82) | Events During the 90 days (AKI) [3]: 48 | Total endpoint (AKI events) [3]: 293 | Events at secondary end (AKI) [3]: 245 | Total Percent (incidence rate of AKI at the end of the study) [3]: 5.9%

Cc1ccc(-c2cc(C(F)(F)F)nn2-c2ccc(S(N)(=O)=O)cc2)cc1 [Celecoxib, celecoxib]
Tmax [1]: 0.5 h | Tmax ([1]; 3 mg/kg): 0.5 h | Cmax ([1]; 3 mg/kg, oral gavage, Kidney): 12100 ng/mL | Cmax ([1]; 3 mg/kg, oral gavage, Liver): 11700 ng/mL | Cmax ([1]; 3 mg/kg, oral gavage, Plasma): 983 ng/mL | half-life ([1]; 3 mg/kg, t1/2, mouse, oral gavage, Kidney): 4.5 h | half-life ([1]; 3 mg/kg, t1/2, mouse, oral gavage, Liver): 3.6 h | half-life ([1]; 3 mg/kg, t1/2, mouse, oral gavage, Plasma): 2.4 h | Drug concentration, time course ([2]; Kidney, 0h): 0 | Drug concentration, time course ([2]; Kidney, 3h): 10,340 | Drug concentration, time course ([2]; Kidney, 6h): 8900 | Drug concentration, time course ([2]; Kidney, 9h): 6480 | Drug concentration, time course ([2]; Kidney, 12h): 2100 | Drug concentration, time course ([2]; Kidney, 15h): 450 | Drug concentration, time course ([2]; Kidney, 18h): 0 | Drug concentration, time course ([2]; Kidney, 21h): 0 | Drug concentration, time course ([2]; Kidney, 24h): 0 | Drug concentration, time course ([2]; Liver, 0h): 0 | Drug concentration, time course ([2]; Liver, 3h): 13,200 | Drug concentration, time course ([2]; Liver, 6h): 9800 | Drug concentration, time course ([2]; Liver, 9h): 6250 | Drug concentration, time course ([2]; Liver, 12h): 2300 | Drug concentration, time course ([2]; Liver, 15h): 400 | Drug concentration, time course ([2]; Liver, 18h): 50 | Drug concentration, time course ([2]; Liver, 21h): 0 | Drug concentration, time course ([2]; Liver, 24h): 0 | Drug concentration, time course ([2]; Plasma, 0h): 0 | Drug concentration, time course ([2]; Plasma, 3h): 250 | Drug concentration, time course ([2]; Plasma, 6h): 50 | Drug concentration, time course ([2]; Plasma, 9h): 30 | Drug concentration, time course ([2]; Plasma, 12h): 0 | Drug concentration, time course ([2]; Plasma, 15h): 0 | Drug concentration, time course ([2]; Plasma, 18h): 0 | Drug concentration, time course ([2]; Plasma, 21h): 0 | Drug concentration, time course ([2]; Plasma, 24h): 0 | Association with AKI, Unadjusted (95% CI) [3, 4]: 2.95 (2.68–3.25) | Association with AKI, Adjusted (95% CI) [3, 4]: 2.32 (2.12–2.68) | Association with AKI, Unadjusted (95% CI) [3, 5]: 1.87 (1.64–2.43) | Association with AKI, Adjusted (95% CI) [3, 5]: 1.86 (1.53–2.77) | Association with AKI compared to control drug metformin, in words [3]: increased rate of AKI; also recorded: higher risk for AKI | Events During the 90 days (AKI) [3]: 112 | Total endpoint (AKI events) [3]: 533 | Events at secondary end (AKI) [3]: 421 | Total Percent (incidence rate of AKI at the end of the study) [3]: 10.72%
